Here are results for 88 compounds from a melting point compilation (Tetko et al.; mined from patent text by program, amines drawn as free bases though some values may be those of a salt).

A value given as a limit tells only on which side of the number the result lay.

On to `Cc1cc(Oc2ccccc2)ccc1C(=O)CBr`, for which the melting point (in general, the temperature, or range, at which the solid turns liquid) fell in the range of 60 to 61 °C.

In turn, `O=C(c1cc([N+](=O)[O-])cc(C(F)(F)F)c1)c1cc([N+](=O)[O-])cc(C(F)(F)F)c1` registered a melting point of 181 °C.

On to `O=C(O)C(=O)c1ccc(S(=O)(=O)CCOc2ccc3ccccc3c2)cc1`, for which the melting point fell in the range of 135 to 136 °C. Turning to `Cc1cccc(C(Oc2ccc3oc(CCCO)cc3c2)c2cocn2)c1` (stereo not drawn), the melting point was in the range of 101 to 102 °C. Then `CCC(Cl)c1nc2cccnc2[nH]1` (stereo not drawn), with 137 °C; and `Cc1cc(Cl)cc(C(=O)NC2(C)CS(=O)(=O)C2)c1NC(=O)c1cc(C(F)(F)F)nn1-c1ncccc1Cl`, with 168 to 171 °C; and `COC(=O)C=C1C(=O)N(c2ccccc2)C(=O)N1Cc1ccccc1`, with 130 °C. The value for `CC1(C)CCC(C)(C)c2cc(-c3cc([N+](=O)[O-])ccc3OS(=O)(=O)C(F)(F)F)ccc21` was 87 to 89 °C. Then `COc1cc2nc(Cl)nc(Nc3ccc4[nH]ncc4c3)c2cc1OC`, with 279 to 284 °C; and `N#Cc1cnc(Nc2ccc(CCO)cc2)nc1-c1ccccc1`, with 142 to 143 °C; and `CCOC(=O)C(=O)Nc1cccc(O)c1C(N)=O`, with 200 to 202 °C. In turn, `Nc1nc(-c2ccc(F)cc2)cc(-c2ccc(F)cc2)n1` came in with a melting point of 207 to 210 °C. `Cc1cc(C#N)cc(C(=O)Nc2ccc(F)c(F)c2)n1` gave a melting point of 170 °C.

For the compound `FC(F)C(F)(F)Oc1cccc(Nc2nccc(-c3ccsc3)n2)c1`, the melting point lay in the range of 110 to 111 °C. The value for `CC(=O)NC[C@H]1CN(c2ccc(N3CCN(c4ccc([N+](=O)[O-])o4)CC3)c(F)c2)C(=O)O1` was 191 to 204 °C; that for `Cn1cc(C2c3ccc(Cl)cc3C=Cc3sc(N)nc32)c(=O)[nH]c1=O` (stereo not drawn) was above 240 °C; that for `COc1ccc(CS[C@@H]2C[C@@H](C(=O)NN)N(S(=O)(=O)c3ccc4ccccc4c3)C2)cc1` was 130 °C.

`Cn1c(=O)n(-c2cc(N)c(Cl)cc2F)c(=S)n1C` registered a melting point of 208 °C. The value for `CCC(C)(CC)C1=NN=C(NC(=O)c2c(OC)cccc2OC)SC1` was 134 to 140 °C. Turning to `Cc1ccc(C)c2c1CCC2=O`, the melting point was determined as 70 °C. In the case of `CN1C2=C(CSC2)C(=O)Nc2cccnc21`, the melting point lay within 240 to 241 °C. Then `Oc1cccc(-c2ccc(OC[C@H](O)CCc3cccnc3)cc2)c1`, with 169 °C; and `C=CCc1c(OCC(O)COc2ccc3c(=O)cc(C(=O)O)oc3c2CC=C)ccc(C(C)=O)c1O` (stereo not drawn), with 105 °C; and `CCc1cc(Oc2cccnc2)c(S(C)(=O)=O)cc1C(=O)N=C(N)N`, with 219 to 223 °C. The value for `CS(=O)(=O)c1ccc(C(CC2CCCC2)C(=O)Nc2ncc[nH]2)cc1[N+](=O)[O-]` (stereo not drawn) was 243 to 244 °C; that for `CC1(C)C(=O)Nc2ccc(C3(C#N)C=CC=N3)cc21` (stereo not drawn) was 256 to 258 °C. The value for `Cc1cccc2nc(C(S)c3ncnc4[nH]cnc34)n(-c3ccccc3Cl)c(=O)c12` (stereo not drawn) was 228 to 230 °C; that for `CC1C(=O)Oc2c1cccc2S(=O)(=O)c1ccccc1Cl` (stereo not drawn) was 94 to 96 °C. As for `Nc1nc(-c2cc(Cl)ccc2Cl)nc(N2CCS(=O)(=O)CC2)n1`, the melting point was above 275 °C. Then `NC1=C([N+](=O)[O-])C(=O)NC1=Cc1ccccc1`, with above 260 °C. `CN(C)C(=O)Nc1cc(CNc2ccccc2C(=O)Nc2ccc3cn(C)nc3c2)ccn1`: the melting point is 184 °C. The value for `COC(=O)Cc1ccc(OCCNC(=O)C2Cc3ccccc3N2S(=O)(=O)c2ccc(-c3cccc(C(F)(F)F)c3)c(Cl)c2)cc1` (stereo not drawn) was 60 °C; that for `CN(C)CC1CCc2cc(OCc3ccc([N+](=O)[O-])cc3)ccc2C1` (stereo not drawn) was 83 to 89 °C; that for `CC1CN(c2ccc(S(N)(=O)=O)cc2)CC(C)N1CCC1OCCc2ccccc21` (stereo not drawn) was 170 to 175 °C.

On to `CCC(=O)Oc1ccc2c(c1)CCC1C2CCC2(C)C(=O)CCC12` (stereo not drawn), for which the melting point is 134 to 136 °C.

The compound `Cc1ccc(S(=O)(=O)OCCCCCCCn2c3c(c4ccccc4c2=O)C(=O)c2ccccc2-3)cc1` yielded a melting point of 123 to 126 °C. In turn, `CC(C)(O)c1ccc(CNC(=O)c2cccnc2Oc2ccc3nonc3c2)cc1` returned a melting point of 149 to 151 °C.

`CCN(CC)C(=O)c1ccoc1-c1ccc(Cl)cc1` displayed a melting point of 64 to 66 °C. For the compound `CC(C)=CCN1CCC(=C2c3ccccc3CCn3ccnc32)CC1`, the melting point amounted to 127 °C. Then `O=c1cc(C=Cc2ccc(Cl)cc2)oc(-c2ccccc2)c1`, with 169 to 171 °C; and `CC(C)C(OCc1ccccc1)[C@H]1[C@H]([N+](=O)[O-])[C@H](c2cccnc2)N[C@@H]1C(=O)NCCC(=O)O` (stereo partly drawn), with 98 to 100 °C; and `CCCCOC(=O)c1ccc(F)nc1N`, with 132 to 134 °C.

With `CCCCCCCCCCCCCCCCCCCCC1Cc2cc(C(=O)O)ccc2N1` (racemic), the melting point was in the range of 110 to 115 °C. In turn, `COc1cc(O)c(C(=O)C=Cc2sccc2C)c(OC)c1` showed a melting point of 124 °C.

In turn, `CC(C)(C)CC(C)(C)c1cc(N=Nc2cc([N+](=O)[O-])ccc2Cl)c(O)c(C(C)(C)c2ccccc2)c1` yielded a melting point of 153 to 156 °C. In turn, `O=C1c2cc(Cl)c(Cl)cc2C(O)N1CCO[N+](=O)[O-]` (stereo not drawn) registered a melting point of 145 to 147 °C.

For the compound `CN1C(=O)C2(COc3cc4c(cc32)OCCO4)c2c(C(=O)NC3CC3)cccc21` (stereo not drawn), the melting point was 127 to 128 °C. The value for `COc1cc(OC)n2sc(=NS(=O)(=O)Cc3ccccc3OC(F)F)nc2n1` was 151 to 152 °C. Then `CCC(=O)c1cc(F)c(OCC2CC2(Cl)Cl)cc1F` (stereo not drawn), with 89 to 91 °C; and `CCc1nc(-c2ccccc2)n(CC(C)(OC)OC)c(=O)c1C`, with 80 to 83 °C. Then `O=S=Nc1ccc(C(=O)Cl)cc1`, with 31 °C. The compound `COc1ccc(CCNC(=O)C(=O)Nc2ccncc2)cc1OC1CCCC1` returned a melting point of 182 °C. Then `COC(=O)C(C)c1cccc2c(=O)c3ccccc3ccc12` (stereo not drawn), with 37 to 39 °C. Then `O=C1CCc2ccc(OCCCN3CCCN(c4cccc(Cl)c4Cl)CC3)cc2N1`, with 130 to 131 °C. Then `Clc1ccccc1N=Cc1ccc(-c2nc3ccccn3n2)cc1`, with 135 to 136 °C; and `CCOC(=O)c1c(CC(=O)O)n(-c2ccc(OC(C)C)cc2)c2ccc(Oc3ccc(C(F)(F)F)cc3)cc12`, with 158 °C; and `N#Cc1cc(OCF)cc([N+](=O)[O-])c1Cl`, with 27 to 28 °C. In turn, `N#CC(C#N)=C1Sc2nc3ccc([N+](=O)[O-])cc3nc2S1` yielded a melting point of 220 to 222 °C.

Compound `C=C(C)C(=O)OCCCCCCOc1ccc(C(=O)O)cc1` gave a melting point of 83 °C.

For the compound `COc1nc(-c2ccccc2)c2ccsc2n1`, the melting point is 160 to 162 °C. Take `CCOP(=O)(Cc1ccc(NC(=O)c2sc(SC)c3c2CCc2nc(C)oc2-3)cc1)OCC`: the melting point is 197 to 198 °C. `Cc1nn(Cc2ccccc2)c2c1C(=O)CC(C)(C)C2` came in with a melting point of 133 to 134 °C. The value for `Clc1ccc2nc(-c3ccsc3)cn2n1` was 203 to 205 °C; that for `Nc1cncc(O)c1CCCOc1cccnc1Oc1cccc(Cl)c1` was 75 to 90 °C; that for `CSc1nn2c(N)cc(C)nc2c1S(=O)(=O)c1ccccc1` was above 230 °C.

Regarding `CC(C(N)=O)c1ccc(-c2ccc(F)cc2F)c(F)c1` (stereo not drawn), the melting point was in the range of 136 to 137 °C.

For `ONc1ccccc1F`, the melting point is 70 to 71 °C.

`CCOC(=O)CCC1(C)Oc2ccc([N+](=O)[O-])cc2O1` (stereo not drawn) displayed a melting point of 76 to 78 °C. The compound `C/C(=N\O)c1cccc(NC(=O)NCC(=O)N(CC(=O)N2CCCC(C)(C)C2)c2ccccc2)c1` displayed a melting point of 248 °C. `CC(=O)NCC1CN(c2ccc(N3CCN(c4nnc(C)o4)CC3)c(F)c2)C(=O)O1` (stereo not drawn) returned a melting point of 212 to 214 °C.

As to `N=C(NC=Cc1ccc([N+](=O)[O-])cc1)c1ccccc1`, the melting point was in the range of 163 to 165 °C. `O=C(NCCN1CCCC1)c1ccc(-c2cnc3c(c2)N(Cc2c(Cl)cccc2Cl)C(=O)CN3)cc1` gave a melting point above 200 °C. Then `O=[N+]([O-])c1ccc(C(Cl)=NNc2ccccc2)c(Cl)c1`, with 124 to 126 °C; and `O=C(O)c1cccc(C(=O)C=Cc2cccc(C=Cc3ccc4ccccc4n3)c2)c1O`, with 237 to 240 °C.

Turning to `NCC(O)c1nn(Cc2ccccc2)c2ccccc12` (stereo not drawn), the melting point came to 126 °C. Then `CCC(CC)c1nn(-c2ccc(C(F)(F)F)cn2)cc1CCCO`, with 79 to 80 °C; and `O=C(O)/C=C/c1cncc(OCc2ccccc2)c1`, with 140 °C; and `COC(=O)c1cc(OC)c(Cl)c(C)c1Cl`, with 74 °C. The value for `CCC(NC(=O)c1ccc(Cl)cc1)NC(=NC#N)Nc1cccnc1` (stereo not drawn) was 181 to 183 °C.

With `Fc1ccc(-c2nc(-c3ccccc3)sc2-c2ccncc2)cc1`, the melting point lay in the range of 135 to 137 °C. Then `COC(=O)C1=CCN=C(c2ccccc2F)c2cc(Cl)ccc21`, with 106 to 107 °C; and `CC1(C)C=C(C#N)c2cc3nonc3cc2O1`, with 136 to 138 °C; and `Fc1ccc(-c2ncn(C3CCNCC3)c2-c2ccnc(Oc3ccccc3)n2)cc1`, with 182 to 183 °C. As to `CCOC(=O)c1nn(C)cc1C(F)F`, the melting point is 30 to 31 °C.

The compound `CC(=O)Nc1cc2c(cc1[N+](=O)[O-])OC(C)(C)[C@@H](O)[C@@H]2N1CCCC1=O` (relative stereo) had a melting point of 240 to 241 °C. Then `O=C(O)CCCn1ccc(=O)c(OCc2ccccc2)c1C(O)c1ccccc1` (stereo not drawn), with 205 to 210 °C; and `CCOC(=O)c1cc(=O)c(Oc2ccc(OC)cc2)co1`, with 106 to 107 °C; and `Cc1ccc2c(c1)C(=O)C(=O)N2CCCN(C(C)C)C(C)C`, with 87 to 89 °C.
